The numbers were not newly measured in patent US20230023032A1, “SUSTAINED RELEASE COMPOSITIONS COMPRISING LIOTHYRONINE” (Amneal Complex Products Research LLC, priority 2020, published 2023), which cites them from elsewhere.

For the data set the following is noted: administered in an immediate release form.

Turning to `N[C@@H](Cc1cc(I)c(Oc2ccc(O)c(I)c2)c(I)c1)C(=O)O` [liothyronine], the half-life entry is recorded as “about 10 hours”.
